{"source": "patent US11518750B2", "about": "“3-methylideneoxan-4-one compounds and substituted derivatives thereof as inhibitors of telomerase” (NORTHWESTERN UNIVERSITY, priority 2019, dated 2022)", "key": {"[1]": {"target": "T1, telomerase (MCF-7 cell lysates) (Homo sapiens, UniProt O14746)", "T1 construct": "endogenous in cells; host or cells: MCF-7", "T1 sequence (O14746 whole entry)": "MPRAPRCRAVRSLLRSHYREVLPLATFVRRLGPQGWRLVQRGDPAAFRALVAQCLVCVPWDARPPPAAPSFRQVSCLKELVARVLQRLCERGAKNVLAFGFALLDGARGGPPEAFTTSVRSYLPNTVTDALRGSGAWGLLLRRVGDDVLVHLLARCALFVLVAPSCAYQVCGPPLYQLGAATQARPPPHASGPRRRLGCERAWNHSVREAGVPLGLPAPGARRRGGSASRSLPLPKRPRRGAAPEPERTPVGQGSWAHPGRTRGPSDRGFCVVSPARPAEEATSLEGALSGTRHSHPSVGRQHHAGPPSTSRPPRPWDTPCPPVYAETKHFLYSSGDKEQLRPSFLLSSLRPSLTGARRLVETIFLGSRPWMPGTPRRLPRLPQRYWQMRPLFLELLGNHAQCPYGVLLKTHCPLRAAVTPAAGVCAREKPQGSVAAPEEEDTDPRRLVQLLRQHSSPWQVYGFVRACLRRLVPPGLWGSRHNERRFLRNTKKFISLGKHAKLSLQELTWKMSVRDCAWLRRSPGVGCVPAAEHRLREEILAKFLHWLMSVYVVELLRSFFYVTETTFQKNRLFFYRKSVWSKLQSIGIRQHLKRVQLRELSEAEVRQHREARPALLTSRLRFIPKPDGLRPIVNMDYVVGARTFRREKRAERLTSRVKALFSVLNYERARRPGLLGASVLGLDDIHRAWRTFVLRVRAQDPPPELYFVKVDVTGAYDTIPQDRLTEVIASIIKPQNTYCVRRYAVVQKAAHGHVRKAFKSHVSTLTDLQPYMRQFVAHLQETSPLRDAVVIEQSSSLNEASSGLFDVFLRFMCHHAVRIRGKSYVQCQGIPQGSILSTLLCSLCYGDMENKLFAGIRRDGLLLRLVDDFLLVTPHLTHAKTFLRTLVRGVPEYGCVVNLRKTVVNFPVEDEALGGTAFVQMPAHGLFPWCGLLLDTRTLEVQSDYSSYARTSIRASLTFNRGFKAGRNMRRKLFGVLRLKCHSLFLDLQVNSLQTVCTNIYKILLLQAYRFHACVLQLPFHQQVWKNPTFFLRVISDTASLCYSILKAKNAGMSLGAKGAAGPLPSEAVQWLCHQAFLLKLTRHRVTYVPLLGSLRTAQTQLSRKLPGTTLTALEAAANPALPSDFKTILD", "T1 sequence (O60832 whole entry partner)": "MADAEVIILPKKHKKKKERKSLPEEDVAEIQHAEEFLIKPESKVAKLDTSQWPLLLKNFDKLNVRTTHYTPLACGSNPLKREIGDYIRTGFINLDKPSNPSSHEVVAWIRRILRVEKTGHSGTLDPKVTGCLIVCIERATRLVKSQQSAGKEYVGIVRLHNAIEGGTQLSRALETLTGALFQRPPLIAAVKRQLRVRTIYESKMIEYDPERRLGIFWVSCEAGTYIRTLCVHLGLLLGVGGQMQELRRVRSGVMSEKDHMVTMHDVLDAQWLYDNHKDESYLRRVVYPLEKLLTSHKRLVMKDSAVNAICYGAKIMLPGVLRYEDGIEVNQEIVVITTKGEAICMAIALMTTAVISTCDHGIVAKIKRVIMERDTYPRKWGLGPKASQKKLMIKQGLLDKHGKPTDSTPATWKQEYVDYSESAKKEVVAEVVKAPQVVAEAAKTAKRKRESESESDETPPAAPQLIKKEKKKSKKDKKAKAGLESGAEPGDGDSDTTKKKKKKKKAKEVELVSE", "T1 sequence (Q9NPE3 whole entry partner)": "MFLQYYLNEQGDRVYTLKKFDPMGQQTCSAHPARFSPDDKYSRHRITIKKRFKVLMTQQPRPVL", "T1 sequence (Q9NX24 whole entry partner)": "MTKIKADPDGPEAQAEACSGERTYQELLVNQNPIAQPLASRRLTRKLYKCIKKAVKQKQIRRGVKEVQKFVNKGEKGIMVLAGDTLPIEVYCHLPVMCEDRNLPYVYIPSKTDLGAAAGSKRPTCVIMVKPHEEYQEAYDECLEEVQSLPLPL", "T1 sequence (Q9NY12 whole entry partner)": "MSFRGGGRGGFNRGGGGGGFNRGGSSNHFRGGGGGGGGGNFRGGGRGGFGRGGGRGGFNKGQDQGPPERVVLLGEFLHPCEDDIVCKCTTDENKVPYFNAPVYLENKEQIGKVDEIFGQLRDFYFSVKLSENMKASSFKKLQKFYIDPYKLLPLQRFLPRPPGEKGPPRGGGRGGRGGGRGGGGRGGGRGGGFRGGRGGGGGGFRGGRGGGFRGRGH", "T1 sequence (Q9BUR4 whole entry partner)": "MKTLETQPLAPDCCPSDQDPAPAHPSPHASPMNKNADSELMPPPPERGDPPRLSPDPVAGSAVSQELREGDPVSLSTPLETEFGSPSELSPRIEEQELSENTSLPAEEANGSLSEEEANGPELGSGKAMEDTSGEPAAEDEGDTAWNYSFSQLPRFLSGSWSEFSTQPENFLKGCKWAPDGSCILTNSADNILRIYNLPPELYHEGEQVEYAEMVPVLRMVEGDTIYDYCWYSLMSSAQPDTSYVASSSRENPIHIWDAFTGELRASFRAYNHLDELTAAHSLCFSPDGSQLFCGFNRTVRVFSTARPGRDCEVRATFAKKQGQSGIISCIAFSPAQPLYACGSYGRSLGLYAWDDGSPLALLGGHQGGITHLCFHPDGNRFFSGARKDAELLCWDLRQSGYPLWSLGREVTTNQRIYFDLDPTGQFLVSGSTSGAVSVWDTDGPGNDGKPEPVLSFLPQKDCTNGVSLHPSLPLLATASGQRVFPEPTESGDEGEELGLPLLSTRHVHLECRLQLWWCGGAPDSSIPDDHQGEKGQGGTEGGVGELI", "assay": "TRAP assay in cell lysates (PCR-based telomerase activity assay)", "type": "biochemical", "settings": "TRAP assay in MCF7 cell lysate in vitro; read-out: IC50", "description": "In developing a preliminary structural activity relationship (SAR) for the chrologs, we divided the structure of the pyran into four main components: (1)C-2 substituents (carboxylic acid of chrolactomycin); (2) C-6 substituents (chrolactomycin macrolide loop); (3) C-3 substituents (fused γ-lactone of chrolactomycin) and (4) inclusion of the exocyclic methylene group. We carried out systematic modifications of each structural unit and evaluated the effects on telomerase activity as measured by a PCR-based telomerase activity assay (TRAP assay).^16\nTelomeric Repeat Amplification Protocol Assay. The telomeric repeat amplification protocol (TRAP) assay was performed using the TRAPeze RT Telomerase Detection Kit (EMD Millipore) and iTaq DNA polymerase (Bio-Rad) according to the manufacturer's protocol.\nCell Lysate TRAP Analysis. MCF-7, HeLa, ACHN, MDA-MB231 and A549 cells were cultured in DMEM media supplemented with 10% Fetal Bovine Serum (FBS), 1% pen/strep and with 5% CO2 and 37° C. Cells were plated in 2×T75 flasks and cultured for 3 days. Flasks were rinsed twice with PBS and treated with 0.05% trypsin-EDTA (Thermo Fisher) to detach cells. […] Cell extracts were transferred to microcentrifuge tubes, 200 μl/tube, and centrifuged at 12,000×g for 20 min at 4° C. to remove cell debris. Stock solutions of compounds were made in DMSO with a concentration of 100 mM and a […] dilution was performed in DMSO in a 96-well plate to produce compound solutions of 100, 10, 1, 0.1, 0.01, and 0.001 mM (1000× of the final concentration). The 1000× stock solutions of the compound samples were transferred to a 96-well plate using the Echo 550 (Labcyte) and then diluted with the cell extracts to yield final compound concentrations of 100, 10, 1, 0.1, 0.01, and 0.001 μM. The plate was covered and shaken at room temperature for 30 min. For TRAPeze reactions, a “master mix” was prepared according to the TRAPeze protocol, containing 5 μl of the TRAPeze reaction mix; 0.4 μl Taq polymerase; 17.6 μl PCR grade, nuclease-free water. The master mix and treated cell extracts were transferred using the Mosquito Crystal Liquid Handling System (TTP Labtech) into separate wells in a white, 384-well RT-PCR plate. Each well contained 1.2 μl of the master mix and 1.2 μl of the treated cell extract to give a final volume of 2.4 μl, with two duplicates for each sample. The RT-PCR plate was then sealed and centrifuged for 5 min. A sample containing only CHAPS Lysis Buffer was included as negative control. The TSR8 standards were included to generate a standard curve. Samples were amplified in a CFW384 RT-PCR (BioRad) detection system with PCR parameters of 30 min at 30° C. for 1 cycle, 2 min at 95° C. for 1 cycle, and then 45 cycles of 15 s at 94° C., 60 s at 59° C., and 10 s at 45° C. Real-time fluorescent data was obtained during the 10 s at 45° C. step. The number of cycles at which the fluorescence level reached a threshold (Ct) was averaged between the duplicates for each sample. Using a calibration curve obtained from the TSR8 standards, a linear equation was obtained to convert the Ct values into arbitrary telomerase activity units, which were plotted as a function of compound concentration to construct dose-response curves and calculate IC50."}, "N-acetyl cysteine (NAC)": {"tested_on": "N-acetyl cysteine (NAC)", "assay": "physchem", "type": "physicochemical", "settings": "pH 7.4", "description": "N-Acetyl Cysteine, N-Acetyl Lysine and N-Acetyl Serine Kinetic Studies. Assay was conducted as described with minor modifications.^81-84 Briefly, a 1 mM stock solution of NU-1 with internal standard (phenacetin) in DMSO was added to a 50 mM solution of either N-acetyl cysteine, N-acetyl lysine or N-acetyl serine in 67 mM phosphate buffer (pH 7.4), as well as added to a solution of 67 mM phosphate buffer (pH 7.4) control. Samples were taken every 2 min for 2 h and quenched immediately with MeOH and centrifuged upon sampling. Samples were placed on a Waters Acquity UPLC-MS system and measured for the ratio of NU-1 to internal standard intensity to calculate the amount of NU-1 present at each time point relative to the amount of NU-1 at the first injection of the compound in buffer. Assay was conducted in triplicate."}, "[2]": {"target": "T2, Human telomerase purified from telomerase-overexpressing HEK293T cells (Homo sapiens, UniProt O14746)", "T2 construct": "made in house; host or cells: HEK293T (telomerase-overexpressing)", "T2 sequence (O14746 whole entry)": "as the sequence (O14746 whole entry) above", "T2 sequence (O60832 whole entry partner)": "as the sequence (O60832 whole entry partner) above", "T2 sequence (Q9NPE3 whole entry partner)": "as the sequence (Q9NPE3 whole entry partner) above", "T2 sequence (Q9NX24 whole entry partner)": "as the sequence (Q9NX24 whole entry partner) above", "T2 sequence (Q9NY12 whole entry partner)": "as the sequence (Q9NY12 whole entry partner) above", "assay": "Direct (non-PCR) primer extension telomerase activity assay, purified telomerase", "type": "biochemical", "settings": "purified telomerase", "description": "Primer-Extension Telomerase Activity Assays. […] ID NO: 1) (2 μM)]."}, "Lipophilicity": {"assay": "Lipophilicity", "type": "physicochemical", "settings": "in words"}, "MCF-7 cells": {"tested_on": "MCF-7 cells", "assay": "Compound washout cell viability", "type": "cell-based, human", "settings": "washed, fresh media, 24 h", "description": "Compound Washout Cell Viability Measurements. MCF-7 cells were plated in 96 well plates and allowed to attach for 24 h. Media was removed, and fresh media containing various concentrations of compound was added, and the plate was incubated for 24 h. Media was removed, cells were washed 2 times with PBS, and fresh media without compound was added. Cells were incubated at 37° C. for an additional “X” h and analyzed as above. Note: “fresh” media constitutes media supplemented with 10% Fetal Bovine Serum (FBS) and 1% pen/strep that has not been previously used for cell culture (e.g., not conditioned media)."}, "MCF7 cells": {"tested_on": "MCF7 cells", "assay": "Cell viability (CellTiter-Glo), telomerase-positive cells", "type": "cell-based, human", "settings": "Homo sapiens, read-out: IC50, loss of viability", "description": "Cell Viability Measurements. MCF-7, HeLa, MDA-MB231 and A549 cells were cultured in DMEM media supplemented with 10% Fetal Bovine Serum (FBS), 1% pen/strep and with 5% CO2 and 37° C. Cells were plated in 96 well plates and allowed to attach for 24 h. Media was removed, and fresh media containing various concentrations of compound was added, and the plate was incubated for 24 h. The plate was removed from the incubator and allowed to equilibrate to room temperature for 30 min. 50 μl of freshly prepared CellTiter-Glo (Promega) reagent was added, and the plate was mixed on an orbital shaker for 10 min to induce cell lysis and stabilize luminescent signal. The luminescence was recorded on a PerkinElmer Enspire multimode plate reader."}}, "note": "pIC50: −log10 of the molar value."}
{"smiles": "C=C1C(=O)[C@](C)(C(=O)OC)[C@H](CCc2cn(Cc3ccc(F)cc3F)nn2)O[C@@H]1C", "note": "[NU-1, methyl (2S,3R,6R)-2-(2-(1-(2,4-difluorobenzyl)-1H-1,2,3-triazol-4-yl)ethyl)-3,6-dimethyl-5 methylene-4-oxotetrahydro-2H-pyran-3-carboxylate]", "values": [{"measurement": "pIC50", "setting": "[1]", "result": 7.05}, {"measurement": "half-life at 1 μM", "setting": "N-acetyl cysteine (NAC)", "result": 42, "unit": "min"}, {"measurement": "time to complete inhibition", "setting": "[2]; 100 μM", "result": "~6", "unit": "h"}, {"measurement": "inhibition of telomere repeat synthesis", "setting": "[2]; in words", "result": "low-micromolar range"}, {"measurement": "lipophilicity", "setting": "Lipophilicity", "result": "favorable"}, {"measurement": "viability after washout", "setting": "MCF-7 cells", "result": "did not restore"}, {"measurement": "pIC50", "setting": "MCF7 cells", "result": 4.57}]}
